Source: patent publication US20260363243A1 (priority 2022, published 2026)

Tested on: cucumber downy mildew
Experiment: Activity in vivo for inhibiting cucumber downy mildew (potting method, greenhouse)
Conditions: for efficacy compared with dimethomorph and cyazofamid / efficacy compared with oxathiapiprolin / bactericidal activity: in words
[1] = 0.078 mg/L, re-screening, Table 2
[2] = 0.312 mg/L, re-screening, Table 2
[3] = 1.25 mg/L, re-screening, Table 2

Source text: The test and investigation method refers to a SOP-SC-1098 cucumber downy mildew potting method in the fungicide section of Standard operation Specification for testing biological Activity of pesticides written by Kang Zhuo and Gu Baogen.

Structure (SMILES) | Control effect (20 mg/L, Table 1) | Control effect (1.25 mg/L, Table 1) | Control effect (5 mg/L, Table 1) | also measured
CO/N=C(/C(=O)N1CCC(c2nc(C3=NOC(c4c(F)cccc4F)C3)cs2)CC1)c1ccc(C)cc1C (stereo not shown) [Compound I-21] | D (45%≤D<60%) | – | – | –
CO/N=C/C(=O)N1CCC(c2nc(C3=NOC(c4c(F)cccc4F)C3)cs2)CC1 (stereo not shown) [Compound I-22] | A (90%≤A≤100%) | A (90%≤A≤100%) | A (90%≤A≤100%) | Control effect [1]: B (75%≤B<90%); Control effect [2]: B (75%≤B<90%); Control effect [3]: A (90%≤A≤100%)
CO/N=C(\C)C(=O)N1CCC(c2nc(C3=NOC(c4c(F)cccc4F)C3)cs2)CC1 (stereo not shown) [Compound I-23] | B (75%≤B<90%) | D (45%≤D<60%) | B (75%≤B<90%) | –
CC/C(=N\OC)C(=O)N1CCC(c2nc(C3=NOC(c4c(F)cccc4F)C3)cs2)CC1 (stereo not shown) [Compound I-24] | A (90%≤A≤100%) | C (60%≤C<75%) | B (75%≤B<90%) | –
CO/N=C(/C(=O)N1CCC(c2nc(C3=NOC(c4c(F)cccc4F)C3)cs2)CC1)c1cc(C)ccc1C (stereo not shown) [Compound I-25] | A (90%≤A≤100%) | C (60%≤C<75%) | B (75%≤B<90%) | –
CCO/N=C(/C(=O)N1CCC(c2nc(C3=NOC(c4c(F)cccc4F)C3)cs2)CC1)c1cc(C)ccc1C (stereo not shown) [Compound I-26] | C (60%≤C<75%) | D (45%≤D<60%) | D (45%≤D<60%) | –
CCO/N=C(\C#N)C(=O)N1CCC(c2nc(C3=NOC(c4c(F)cccc4F)C3)cs2)CC1 (stereo not shown) [Compound I-28] | A (90%≤A≤100%) | – | B (75%≤B<90%) | –
CCO/N=C/C(=O)N1CCC(c2nc(C3=NOC(c4c(F)cccc4F)C3)cs2)CC1 (stereo not shown) [Compound I-29] | A (90%≤A≤100%) | A (90%≤A≤100%) | A (90%≤A≤100%) | –
CCO/C(C)=C/C(=O)N1CCC(c2nc(C3=NOC(c4c(F)cccc4F)C3)cs2)CC1 (stereo not shown) [Compound I-30] | A (90%≤A≤100%) | B (75%≤B<90%) | B (75%≤B<90%) | –
COC(CC(=O)N1CCC(c2nc(C3=NOC(c4c(F)cccc4F)C3)cs2)CC1)OC (stereo not shown) [II-1] | A (90%≤A≤100%) | A (90%≤A≤100%) | A (90%≤A≤100%) | –
CCOC(CC(=O)N1CCC(c2nc(C3=NOC(c4c(F)cccc4F)C3)cs2)CC1)OCC (stereo not shown) [II-2] | A (90%≤A≤100%) | A (90%≤A≤100%) | A (90%≤A≤100%) | Control effect [1]: B (75%≤B<90%); Control effect [2]: A (90%≤A≤100%); Control effect [3]: A (90%≤A≤100%)
CCCOC(CC(=O)N1CCC(c2nc(C3=NOC(c4c(F)cccc4F)C3)cs2)CC1)OCC (stereo not shown) [II-4] | A (90%≤A≤100%) | A (90%≤A≤100%) | A (90%≤A≤100%) | efficacy compared with dimethomorph and cyazofamid (0.078 mg/L): superior to that of dimethomorph and cyazofamid; efficacy compared with oxathiapiprolin (0.078 mg/L): equivalent to that of oxathiapiprolin at the same concentration; Control effect (0.078 mg/L, re-screening): ≥ 90%; Control effect [1]: A (90%≤A≤100%); Control effect [2]: A (90%≤A≤100%); Control effect [3]: A (90%≤A≤100%); bactericidal activity (re-screening): excellent bactericidal activity
CCOC(CC(=O)N1CCC(c2nc(C3=NOC(c4c(F)cccc4F)C3)cs2)CC1)OCc1ccccc1 (stereo not shown) [II-5] | A (90%≤A≤100%) | – | D (45%≤D<60%) | –
COC(OC)C(C)C(=O)N1CCC(c2nc(C3=NOC(c4c(F)cccc4F)C3)cs2)CC1 (stereo not shown) [II-6] | C (60%≤C<75%) | – | D (45%≤D<60%) | –
CCC(C(=O)N1CCC(c2nc(C3=NOC(c4c(F)cccc4F)C3)cs2)CC1)C(OC)OC (stereo not shown) [II-7] | B (75%≤B<90%) | – | D (45%≤D<60%) | –
CCCC(C(=O)N1CCC(c2nc(C3=NOC(c4c(F)cccc4F)C3)cs2)CC1)C(OC)OC (stereo not shown) [II-8] | A (90%≤A≤100%) | D (45%≤D<60%) | C (60%≤C<75%) | –
CCCCC(C(=O)N1CCC(c2nc(C3=NOC(c4c(F)cccc4F)C3)cs2)CC1)C(OC)OC (stereo not shown) [II-9] | A (90%≤A≤100%) | D (45%≤D<60%) | B (75%≤B<90%) | –
COC(OC)C(C(=O)N1CCC(c2nc(C3=NOC(c4c(F)cccc4F)C3)cs2)CC1)c1ccccc1 (stereo not shown) [II-10] | D (45%≤D<60%) | – | – | –
CC1(CC(=O)N2CCC(c3nc(C4=NOC(c5c(F)cccc5F)C4)cs3)CC2)OCCO1 (stereo not shown) [II-11] | A (90%≤A≤100%) | D (45%≤D<60%) | C (60%≤C<75%) | –
CC1COC(C)(CC(=O)N2CCC(c3nc(C4=NOC(c5c(F)cccc5F)C4)cs3)CC2)O1 (stereo not shown) [II-12] | A (90%≤A≤100%) | – | D (45%≤D<60%) | –
CCOC(CC(=O)N1CCC(c2nc(C3=NOC(c4c(F)cccc4F)C3)cs2)CC1)OCC(F)(F)F (stereo not shown) [II-19] | A (90%≤A≤100%) | A (90%≤A≤100%) | A (90%≤A≤100%) | Control effect (0.005 mg/L, re-screening, Table 2): B (75%≤B<90%); Control effect (0.02 mg/L, re-screening, Table 2): A (90%≤A≤100%); efficacy compared with dimethomorph and cyazofamid (0.078 mg/L): superior to that of dimethomorph and cyazofamid; efficacy compared with oxathiapiprolin (0.078 mg/L): equivalent to that of oxathiapiprolin at the same concentration; Control effect (0.078 mg/L, re-screening): ≥ 90%; Control effect [1]: A (90%≤A≤100%); Control effect [2]: A (90%≤A≤100%); Control effect (0.625 mg/L, Table 3): A (90% ≤ A ≤ 100%); Control effect [3]: A (90%≤A≤100%); Control effect (2.5 mg/L, Table 3): A (90% ≤ A ≤ 100%); Control effect (10 mg/L, Table 3): A (90% ≤ A ≤ 100%); bactericidal activity (re-screening): excellent bactericidal activity
